# Ends that are not written are not given here. Peptide text beside a SMILES is read from it. * marks the point of attachment. Biotin = O=C1N[C@H]2[C@H](CS[C@H]2CCCCC(=O)*)N1
# Columns and labels:
# C57BL/6 mice = test: Safety in immune-competent C57BL/6 mice; type: in vivo; settings: intraperitoneal, 10 and 30 mg/kg; for histological alterations in evaluated organs: 3 days post-injection
# Protocol: Mice were dosed by intraperitoneal injection with 10 and 30 mg/kg of Disruptin, and brain, lung, liver, heart, kidneys, spleen, stomach, small intestine, mesenteric lymph nodes, cecum, colon, pancreas, ovaries, bone marrow, and eyes were evaluated 3 days post-injection.
# UMSCC1 xenografts [1] = test: Peptide internalization assay in UMSCC1 xenografts; type: in vivo; settings: 8 mg/kg, i.p., nude mice with UMSCC1 xenografts
# Protocol: Delivery of the peptide to the UMSCC1 xenografts was assessed after injection of peptides (8 mg/kg, i.p.), 3 days later the tumors were removed, cryosections were immunostained for EGFR, and the internalized biotinylated peptide was visualized by Streptavidin Alexa Fluor […] reagent.
# The UMSCC1 xenografts were cryopreserved in OCT (Electron Microscopy Sciences). Five μm sections were cut from tissues prepared on days 1 and 3 after peptide treatment. Sections were fixed in cold methanol for 20 min and then were blocked with 1% Bovine Serum Albumin (BSA). The sections were incubated overnight with anti-EGFR antibody (Santa Cruz). After washing, the sections were incubated with anti-rabbit Alexa Fluor 488 (Molecular Probes) and Streptavidin conjugated Alexa Fluor 594 (Molecular Probes). Coverslips were mounted with one drop of Prolong Gold anti-fade reagent with DAPI (4,6-diamidino-2-phenylindole; Molecular Probes) to visualize the nuclei. Fluorescence images were acquired using a DP70 camera fitted on an Olympus 1X-71 microscope.
# UMSCC1 xenografts [2] = test: In vivo tumor growth study, UMSCC1 xenografts; set-up: species or system mice
# Protocol: (a) To determine if EGFR level was affected in the UMSCC1 xenograft tumor, mice were injected with either DMSO, specific, or non-specific biotinylated peptide (8 mg/kg) intraperitoneally. Three weeks after the injection, tumors (white arrow) along with some adjacent normal tissue (yellow arrow) were harvested. Immunostaining was performed for EGFR and HSP90. HSP90 levels were not affected by either treatment either in tumor or in the adjacent skin tissue. EGFR expression was reduced in the tumor treated with specific peptide relative to normal adjacent skin cells. (b) The effect on tumor growth was also assessed after treatment with two injections separated by 3 days. Tumor volume was recorded every other day during this period, (c) Time to tumor volume doubling was plotted for each treatment condition using Kaplan-Meier method and (d) Comparisons between any two treatment groups was analyzed by log rank tests.
# Mice were handled according to the established procedures of the University of Michigan Laboratory Animals Maintenance Manual. To generate tumor xenografts, 2×10^6 UMSCC1 cells were transplanted into the flanks of athymic nude Foxn1^nu mice (Harlan Laboratories). […]
# Tumor volume doubling was determined for each xenograft by identifying the earliest day on which it was at least twice as large as on the first day of treatment. […]
# Het1A = test: Clonogenic cell survival assay, Het1A; type: cell-based; settings: cell permeable peptides, normal human epithelial, WT-EGFR
# Protocol: (§1) Clonogenic assays were performed using standard techniques.^34 The fraction surviving each treatment was normalized to the survival of the control cells. Peptide cell survival curves were fitted using the equation SF=(C50)^m/[(C50)^m+C^m], where SF is the surviving fraction, C is the peptide concentration, C50 is the concentration of peptide that produces a 50% cell survival and m is the slope of the sigmoid curve.
# (§2) We then assessed colonogenic survival in head and neck (UMSCC1, UMSCC10B, UMSCC74B), lung (A549, H1975, H3255), and HeLa cancer cells. Normal human esophageal squamous epithelial (Het1A) and lung fibroblast (MRC5) cell lines along with EGFR negative CHO cells were selected to study selectivity.
# EGFR = type: in vivo, mice; settings: UMSCC1 xenograft, 8 mg/kg intraperitoneally
# Protocol: Delivery of the peptide to the UMSCC1 xenografts was assessed after injection of peptides (8 mg/kg, i.p.), 3 days later the tumors were removed, cryosections were immunostained for EGFR, and the internalized biotinylated peptide was visualized by Streptavidin Alexa Fluor 562 reagent.
# CHO = test: Clonogenic cell survival assay, CHO; type: cell-based; settings: cell permeable peptides, hamster ovarian
# Protocol: as §1, §2
# UMSCC74B = test: Clonogenic cell survival assay, UMSCC74B; type: cell-based, human; settings: cell permeable peptides, H&N cancer, WT-EGFR
# Protocol: as §1, §2
# A549 = test: Clonogenic cell survival assay, A549; type: cell-based, human; settings: cell permeable peptides; A549, lung cancer, WT-EGFR
# Protocol: as §1, §2
# EGFR-HSP90 interaction = biological target: T1, EGFR-HSP90 interaction (Homo sapiens, UniProt P07900); test: EGFR-HSP90 interaction by immunoprecipitation and immunoblotting; type: cell-based; settings: 24-hour exposure; cancer cell lines (UMSCC1, H1975); GA 50 nM as positive control
# T1 construct: endogenous in cells; host or cells: UMSCC1, H1975, Het1A, MRC5
# UMSCC1 cells = test: Clonogenic cell survival assay, UMSCC1; type: cell-based, human
# Protocol: as §1, §2
# HSP90 = biological target: T2, HSP90 (Homo sapiens, UniProt P07900); test: Peptide binding assay (streptavidin pull-down of biotinylated peptide, HSP90 immunoblot); settings: UMSCC1 cell lysate; 10, 30 and 100 μg/ml
# T2 construct: cell lysates from cancer or normal cells were prepared by 3 freeze-thaw cycles; endogenous in cells; host or cells: UMSCC1, H1975, Het1A, MRC5 (A11); UMSCC1 (A13)
# Protocol: (a) To determine if the lead peptide interacts directly with tumor HSP90, cell lysates from cancer or normal cells were prepared by 3 freeze-thaw cycles and then incubated with 3 μg/ml of specific or non-specific biotin coupled peptides for 2 hours. The peptide was affinity purified using Streptavidin-agarose beads, and bound HSP90 was detected by immunoblotting for HSP90. […] (b) The effect of the treatment with specific and non-specific peptide on HSP90-EGFR interaction was determined by IP of HSP90 followed by IB with EGFR at 24 hours post treatment. […] The increased levels of HSP70 upon GA treatment indicate inhibition of HSP90 activity. (c) Specificity of the peptide treatment compared to GA was evaluated in tumor and normal cells as described in FIG. 3b, by assessing the levels of EGFR and PARP cleavage (marker of apoptotic cell death) at 72 hours post treatment, (d) cell survival was assessed using colony formation assay.
# (a) UMSCC1 cell lysate was incubated with three concentrations of specific or non-specific peptide (10, 30 and 100 μg/ml) followed by immunoblotting with anti-HSP90 antibody. […] (b) The effect of EGFR specific peptide on HSP90's ability to bind with ATP was assessed. […] Bound protein was eluted in SDS-PAGE buffer, and the levels were determined by immunoblot analysis. […]
# H3255 = test: Clonogenic cell survival assay, H3255; type: cell-based, human; settings: cell permeable peptides; H3255, lung cancer, L858R-EGFR
# Protocol: as §1, §2
# MRC5 = test: Clonogenic cell survival assay, MRC5; type: cell-based; settings: cell permeable peptides; MRC5, normal human fibroblasts, WT-EGFR
# Protocol: as §1, §2
# UMSCC10B = test: Clonogenic cell survival assay, UMSCC10B; type: cell-based, human; settings: cell permeable peptides, H&N cancer, WT-EGFR
# Protocol: as §1, §2
# H1975 = test: Clonogenic cell survival assay, H1975; type: cell-based, human; settings: cell permeable peptides; H1975, lung cancer, T790M-EGFR
# Protocol: as §1, §2
# HeLa = test: Clonogenic cell survival assay, HeLa; type: cell-based, human; settings: cell permeable peptides, cervical cancer, WT-EGFR
# Protocol: as §1, §2
molecule,measurement,setting,value
"COC1=C2C[C@@H](C)C[C@H](OC)[C@H](O)[C@@H](C)/C=C(\C)[C@H](OC(N)=O)[C@@H](OC)/C=C\C=C(/C)C(=O)NC(=CC1=O)C2=O [Geldanamycin, reference compound]",histological alterations in evaluated organs,C57BL/6 mice,histological evidence of toxicity in eye and liver
CC(C)[C@H](NC(=O)[C@H](Cc1c[nH]cn1)NC(=O)[C@@H]1CCCN1C(=O)[C@H](CC(N)=O)NC(=O)[C@H](CC(=O)O)NC(=O)[C@@H](NC(=O)[C@H](CO)NC(=O)[C@H](CCCNC(=N)N)NC(=O)[C@H](CCCNC(=N)N)NC(=O)[C@H](CCCNC(=N)N)NC(=O)[C@H](CCC(N)=O)NC(=O)[C@H](CCCNC(=N)N)NC(=O)[C@H](CCCNC(=N)N)NC(=O)[C@H](CCCCN)NC(=O)[C@H](CCCCN)NC(=O)[C@H](CCCNC(=N)N)NC(=O)CNC(=O)[C@H](Cc1ccc(O)cc1)NC(=O)CCCC[C@@H]1SC[C@@H]2NC(=O)N[C@@H]21)C(C)C)C(=O)N[C@@H](CS)C(=O)O [Specific Peptide] (Biotin-YGRKKRRQRRRSVDNPHVC-OH; N-terminus and C-terminus assumed),time post injection peptide remained detectable in xenografts,UMSCC1 xenografts [1],72 h
same,systemic toxicity,UMSCC1 xenografts [2]; UMSCC1 xenograft mice,No systemic toxicity
Biotin-YGRKKRRORRR-NHVPSDVC [Non Specific Peptide],clonogenic survival (surviving fraction),Het1A,0.91 ± 0.11
same,HSP90 levels in tumor or adjacent skin tissue (immunostaining),EGFR,not affected
same,clonogenic survival (surviving fraction),CHO,1.12 ± 0.14
same,clonogenic survival (surviving fraction),UMSCC74B,0.88 ± 0.10
same,clonogenic survival (surviving fraction),A549,0.81 ± 0.09
same,median tumor doubling time,"UMSCC1 xenografts [2]; UMSCC1 xenografts, single dose",5.5 days
same,EGFR-HSP90 interaction,EGFR-HSP90 interaction,no effect
same,clonogenic survival (surviving fraction),UMSCC1 cells,1.62 ± 0.04
same,binding of peptide with HSP90 versus peptide concentration,HSP90,minimal interaction
same,clonogenic survival (surviving fraction),H3255,1.0 ± 0.07
same,clonogenic survival (surviving fraction),MRC5,1.04 ± 0.05
same,clonogenic survival (surviving fraction),UMSCC10B,0.98 ± 0.04
same,clonogenic survival (surviving fraction),H1975,0.77 ± 0.17
same,clonogenic survival (surviving fraction),HeLa,0.92 ± 0.08
DEAYVMASVDNPHVCRLLGIC [Peptide 5],Survival Fraction,"UMSCC1 cells; clonogenic survival of UMSCC1 cells, synthetic peptides delivered using Chariot",1 ± 0.14
NHVPSDVC [Peptide 8],"complete blood counts and liver cytosolic enzymes (AST, ALT)",C57BL/6 mice,not significantly different from controls
same,histological alterations in evaluated organs,C57BL/6 mice,no histological alterations
SVDNPHVC [Peptide 2],"complete blood counts and liver cytosolic enzymes (AST, ALT)",C57BL/6 mice,not significantly different from controls
same,histological alterations in evaluated organs,C57BL/6 mice,no histological alterations

# From patent US9029502B2, “Inhibitors of the epidermal growth factor receptor-heat shock protein 90 binding interaction” (priority 2010, dated 2015)
